Where a name gives a salt, the structure may show the parent alone. Read-outs that look alike come from different tables or passages of the source.
Assays:
[1] = target: Recombinant human MALT-1 (amino acids 340-824) (Homo sapiens (Human), UniProt Q9UDY8); test: MALT-1 inhibition assay (fluorogenic substrate Ac-LRSR-Rh110-DP); format: biochemical; conditions: recombinant human MALT-1, substrate Ac-LRSR-Rh110-DP
Procedure, shortened: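 MALT-1 at 3 nM final was reacted with 10 μM Ac-LRSR-Rh110-DP, with substrate addition starting the reaction. Incubation ran 60 minutes at 25° C in the dark. Percent inhibition from fluorescence across doses was fitted to a 4-parameter logistic to give IC50.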

[2] = test system: IL-2 secretion by human effector memory T cells (TEM); test: Effector memory T cells IL-2 release assay; format: cell-based; conditions: human CD4+ effector memory T cells, CD3/CD28 bead stimulation, 24 h, read-out: CD4TC IL2 IC50
Procedure, shortened: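 Human CD4+ effector memory T cells from healthy-donor buffy coats were stimulated with anti-CD3/CD28 Dynabeads and exposed to 10 semi-log compound doses (0.1% DMSO) for 24 h at 37 °C. Supernatant IL-2 was measured by HTRF, and IC50 came from a 4-parameter logistic fit to maximal IL-2. Viability was checked by flow cytometry.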

Sequence of Recombinant human MALT-1 (amino acids 340-824) (Q9UDY8 340-824): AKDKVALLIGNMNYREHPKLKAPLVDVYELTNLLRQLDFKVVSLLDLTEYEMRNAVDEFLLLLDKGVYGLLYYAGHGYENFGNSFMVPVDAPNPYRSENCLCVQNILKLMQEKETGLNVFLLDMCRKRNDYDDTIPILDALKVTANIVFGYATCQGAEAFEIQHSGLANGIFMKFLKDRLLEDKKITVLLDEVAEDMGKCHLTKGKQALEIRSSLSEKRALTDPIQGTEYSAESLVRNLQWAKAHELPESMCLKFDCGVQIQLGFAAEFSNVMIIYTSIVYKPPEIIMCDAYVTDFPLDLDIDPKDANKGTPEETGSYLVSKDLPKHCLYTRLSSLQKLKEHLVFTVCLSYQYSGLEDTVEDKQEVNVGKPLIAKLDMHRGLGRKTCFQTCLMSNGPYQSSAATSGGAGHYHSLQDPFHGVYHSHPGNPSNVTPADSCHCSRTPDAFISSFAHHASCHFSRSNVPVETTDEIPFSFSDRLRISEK

With `C[C@@H]1CCN(c2ccc([C@H](N(C)C(=O)[C@H]3CC[S@@](=N)(=O)CC3)C(F)(F)F)cc2)c2cnc3cc(F)nn3c21` (relative stereo) [CPD0074556, (1rel r, 4rel r)1-imino-N-methyl-1-oxo-N-[(1S)-2,2,2-trifluoro-1-[4-[(13 rel R)-4-fluoro-13-methyl-2,3,7,10-tetrazatricyclo[7.4.0.0^2,6]trideca-1(9),3,5,7-tetraen-10-yl]phenyl]ethyl]thiane-4-carboxamide] as the compound, how does the IC50 [1] read?
The IC50 was 62 nM.

And the IC50 ([2]; T-cell)?
Its IC50 is 168 nM.

With `C[C@@H]1CCN(c2ccc([C@H](N(C)C(=O)[C@@H]3CCC(=O)NC3)C(F)(F)F)cc2)c2cnc3cc(Cl)nn3c21` (relative stereo) [CPD0074561, (3rel-R)-N-[(1S)-1-[4-[(13rel-R)-4-chloro-13-methyl-2,3,7,10-tetrazatricyclo[7.4.0.0^2,6]trideca-1(9),3,5,7-tetraen-10-yl]phenyl]-2,2,2-trifluoro-ethyl]-N-methyl-6-oxo-piperidine-3-carboxamide] as the compound, how does the IC50 [1] read?
The IC50 was 29 nM.

What about the IC50 ([2]; T-cell) of the same compound?
Its IC50 is 92 nM.

`CC(=O)N1CCC(C(=O)N(C)[C@@H](c2ccc(N3CC[C@H](C)c4c3cnc3cc(Cl)nn43)cc2)C(F)(F)F)CC1` (relative stereo) [CPD0074566, 1-Acetyl-N-[(1S)-1-[4-[(13rel-R)-4-chloro-13-methyl-2,3,7,10-tetrazatricyclo[7.4.0.0^2,6]trideca-1(9),3,5,7-tetraen-10-yl]phenyl]-2,2,2-trifluoro-ethyl]-N-methyl-piperidine-4-carboxamide] was tested. Which IC50 [1] did it give?
The IC50 was 54 nM.

And the IC50 ([2]; T-cell)?
The IC50 was 58 nM.

For `C[C@H]1CCN(c2ccc([C@H](N(C)C(=O)[C@@H]3CCC(=O)NC3)C(F)(F)F)cc2)c2cnc3cc(Cl)nn3c21` (relative stereo) [CPD0074567, (3rel-R)-N-[(1S)-1-[4-[(13rel-S)-4-chloro-13-methyl-2,3,7,10-tetrazatricyclo[7.4.0.0^2,6]trideca-1(9),3,5,7-tetraen-10-yl]phenyl]-2,2,2-trifluoro-ethyl]-N-methyl-6-oxo-piperidine-3-carboxamide], which IC50 [1] is on record?
Its IC50 is 31 nM.

And the IC50 ([2]; T-cell)?
Its IC50 is 87 nM.

`COCC(=O)N1CC[C@H](C(=O)N(C)[C@@H](c2ccc(N3CCCc4c3cnc3cc(Cl)nn43)cc2)C(F)(F)F)C1` (relative stereo) [CPD0075874, (3rel-R)-N-[(1S)-1-[4-(4-chloro-2,3,7,10-tetrazatricyclo[7.4.0.0^2,6]trideca-1(9),3,5,7-tetraen-10-yl)phenyl]-2,2,2-trifluoro-ethyl]-1-(2-methoxyacetyl)-N-methyl-pyrrolidine-3-carboxamide] was tested. Which IC50 [1] did it give?
Its IC50 is 95 nM.

And the IC50 ([2]; T-cell)?
Its IC50 is 230 nM.

How did the IC50 [1] turn out when `COCC(=O)N1CC[C@@H](C(=O)N(C)[C@@H](c2ccc(N3CCCc4c3cnc3cc(Cl)nn43)cc2)C(F)(F)F)C1` (relative stereo) [CPD0075875, (3rel-S)-N-[(1S)-1-[4-(4-chloro-2,3,7,10-tetrazatricyclo[7.4.0.0^2,6]trideca-1(9),3,5,7-tetraen-10-yl)phenyl]-2,2,2-trifluoro-ethyl]-1-(2-methoxyacetyl)-N-methyl-pyrrolidine-3-carboxamide] was run?
Its IC50 is 85 nM.

What about the IC50 ([2]; T-cell) of the same compound?
The IC50 was 116 nM.

`CN(C)CC(=O)N1CC[C@H](C(=O)N(C)[C@@H](c2ccc(N3CCCc4c3cnc3cc(Cl)nn43)cc2)C(F)(F)F)C1` (relative stereo) [CPD0075876, (3rel-R)-N-[(1S)-1-[4-(4-chloro-2,3,7,10-tetrazatricyclo[7.4.0.0^2,6]trideca-1(9),3,5,7-tetraen-10-yl)phenyl]-2,2,2-trifluoro-ethyl]-1-[2-(dimethylamino)acetyl]-N-methyl-pyrrolidine-3-carboxamide] was tested. Which IC50 [1] did it give?
The IC50 was 138 nM.

And the IC50 ([2]; T-cell)?
The IC50 was 207 nM.

For `CN(C)CC(=O)N1CC[C@@H](C(=O)N(C)[C@@H](c2ccc(N3CCCc4c3cnc3cc(Cl)nn43)cc2)C(F)(F)F)C1` (relative stereo) [CPD0075877, (3rel-S)-N-[(1S)-1-[4-(4-chloro-2,3,7,10-tetrazatricyclo[7.4.0.0^2,6]trideca-1(9),3,5,7-tetraen-10-yl)phenyl]-2,2,2-trifluoro-ethyl]-1-[2-(dimethylamino)acetyl]-N-methyl-pyrrolidine-3-carboxamide], which IC50 [1] is on record?
Its IC50 is 115 nM.

What about the IC50 ([2]; T-cell) of the same compound?
The IC50 was 172 nM.

Which results are given for `CNCC(=O)N1CC[C@H](C(=O)N(C)[C@@H](c2ccc(N3CCCc4c3cnc3cc(Cl)nn43)cc2)C(F)(F)F)C1` (relative stereo) [CPD0075880, (3 rel-R)—N-[(1S)-1-[4-(4-chloro-2,3,7,10-tetrazatricyclo[7.4.0.0^2,6]trideca-1(9),3,5,7-tetraen-10-yl)phenyl]-2,2,2-trifluoro-ethyl]-N-methyl-1-[2-(methylamino)acetyl]pyrrolidine-3-carboxamide hydrochloride]?
IC50 [1]: 99 nM; IC50 ([2]; T-cell): 363 nM

For `CNCC(=O)N1CC[C@@H](C(=O)N(C)[C@@H](c2ccc(N3CCCc4c3cnc3cc(Cl)nn43)cc2)C(F)(F)F)C1` (relative stereo) [CPD0075881, (3 rel-S)—N-[(1S)-1-[4-(4-chloro-2,3,7,10-tetrazatricyclo[7.4.0.0^2,6]trideca-1(9),3,5,7-tetraen-10-yl)phenyl]-2,2,2-trifluoro-ethyl]-N-methyl-1-[2-(methylamino)acetyl]pyrrolidine-3-carboxamide hydrochloride], which IC50 [1] is on record?
Its IC50 is 68 nM.

And the IC50 ([2]; T-cell)?
The IC50 was 210 nM.

For `COc1ccc2ncc(Nc3ccc([C@H](N(C)C(=O)[C@H]4CCN(C(=O)CO)C4)C(F)(F)F)cc3)c([C@H](C)OC)c2n1` (relative stereo) [CPD0075882, (3 rel S)-1-(2-hydroxyacetyl)-N-methyl-N-[(1S)-2,2,2-trifluoro-1-[4-[[6-methoxy-4-[(1 rel S)-1-methoxyethyl]-1,5-naphthyridin-3-yl]amino]phenyl]ethyl]pyrrolidine-3-carboxamide], which IC50 [1] is on record?
The IC50 was 64 nM.

And the IC50 ([2]; T-cell)?
The IC50 was 40 nM.

`COc1ccc2ncc(Nc3ccc([C@H](N(C)C(=O)[C@@H]4CCN(C(=O)CO)C4)C(F)(F)F)cc3)c([C@H](C)OC)c2n1` (relative stereo) [CPD0075883, (3 rel R)-1-(2-hydroxyacetyl)-N-methyl-N-[(1S)-2,2,2-trifluoro-1-[4-[[6-methoxy-4-[(1 rel S-1-methoxyethyl]-1,5-naphthyridin-3-yl]amino]phenyl]ethyl]pyrrolidine-3-carboxamide] was tested. Which IC50 [1] did it give?
Its IC50 is 52 nM.

What about the IC50 ([2]; T-cell) of the same compound?
The IC50 was 47 nM.

How did the IC50 [1] turn out when `COc1ccc2ncc(Nc3ccc([C@@H](N(C)C(=O)[C@H]4CC[S@@](=N)(=O)CC4)C(F)(F)F)cc3)c([C@H](C)OC)c2n1` (relative stereo) [CPD0077186, (1 rel-r,4rel-s)-1-imino-N-methyl-1-oxo-N-[(1R)-2,2,2-trifluoro-1-[4-({6-methoxy-4-[(1 rel-S)-1-methoxyethyl]-1,5-naphthyridin-3-yl}amino)phenyl]ethyl]-1λ^6-thiane-4-carboxamide] was run?
Its IC50 is 126 nM.

And the IC50 ([2]; T-cell)?
Its IC50 is 158 nM.

Which results are given for `COc1ccc2ncc(Nc3ccc([C@@H](N(C)C(=O)[C@H]4CC[S@](=N)(=O)CC4)C(F)(F)F)cc3)c([C@H](C)OC)c2n1` (relative stereo) [CPD0077187, (1 rel-s,4rel-s)-1-imino-N-methyl-1-oxo-N-[(1R)-2,2,2-trifluoro-1-[4-({6-methoxy-4-[(1 rel-S)-1-methoxyethyl]-1,5-naphthyridin-3-yl}amino)phenyl]ethyl]-1λ^6-thiane-4-carboxamide]?
IC50 [1]: 117 nM; IC50 ([2]; T-cell): 209 nM

Which IC50 [1] does the source give for `CC1CCN(c2ccc([C@H](N(C)C(=O)C3CCS(=O)(=O)CC3)C(F)(F)F)cc2)c2cnc3cc(Cl)nn3c21` (single isomer, unassigned) [CPD0021811] here?
The IC50 was 68 nM.

And the IC50 ([2]; T-cell)?
Its IC50 is 82 nM.

For `CN(C(=O)[C@H]1CNC(=O)O1)[C@@H](c1ccc(N2CCCc3c2cnc2cc(Cl)nn32)cc1)C(F)(F)F` (single isomer, unassigned) [CPD0075576], which IC50 [1] is on record?
The IC50 was 46 nM.

And the IC50 ([2]; T-cell)?
The IC50 was 57 nM.

How did the IC50 [1] turn out when `COC(C)c1c(Nc2ccc([C@H](N(C)C(=O)C3CCS(=O)(=O)CC3)C(F)(F)F)cn2)cnc2ccc(Cl)nc12` (stereo in doubt) [CPD0019501, N-[(1S)-1-[6-({6-chloro-4-[(1 rel S)-1-methoxyethyl]-1,5-naphthyridin-3-yl}amino)pyridin-3-yl]-2,2,2-trifluoroethyl]-N-methyl-1,1-dioxo-1λ^6-thiane-4-carboxamide] was run?
The IC50 was 348 nM.

And the IC50 [2]?
The IC50 was 380 nM.

Which IC50 [1] does the source give for `COc1cncc2c1CCCN2c1ccc(C(N(C)C(=O)C2CCS(=O)(=O)CC2)C(F)(F)F)cc1` (stereo in doubt) [CPD0021939, N-methyl-1,1-dioxo-N-[(1S)-2,2,2-trifluoro-1-[4-(5-methoxy-3,4-dihydro-2H-1,7-naphthyridin-1-yl)phenyl]ethyl]thiane-4-carboxamide] here?
The IC50 was 271 nM.

And the IC50 ([2]; T-cell)?
Its IC50 is 894 nM.

`COc1ccc2ncc(Nc3ccc([C@H](N(C)C(=O)[C@H]4CC[S@@](=N)(=O)CC4)C(F)(F)F)cc3)c([C@H](C)OC)c2n1` (stereo in doubt) [CPD0073129, (1 rel-s,4rel-s)-1-imino-N-methyl-1-oxo-N-[(1S)-2,2,2-trifluoro-1-[4-({6-methoxy-4-[(1 rel-S)-1-methoxyethyl]-1,5-naphthyridin-3-yl}amino)phenyl]ethyl]-1λ^6-thiane-4-carboxamide] was tested. Which IC50 [1] did it give?
Its IC50 is 64 nM.

What about the IC50 ([2]; T-cell) of the same compound?
The IC50 was 36 nM.

Which IC50 [1] does the source give for `COc1ccc2ncc(Nc3ccc([C@H](N(C)C(=O)[C@H]4CC[S@](=N)(=O)CC4)C(F)(F)F)cc3)c([C@H](C)OC)c2n1` (stereo in doubt) [CPD0073130, (1 rel-r,4rel-r)-1-imino-N-methyl-1-oxo-N-[(1S)-2,2,2-trifluoro-1-[4-({6-methoxy-4-[(1 rel-S)-1-methoxyethyl]-1,5-naphthyridin-3-yl}amino)phenyl]ethyl]-1λ^6-thiane-4-carboxamide] here?
The IC50 was 61 nM.

What about the IC50 ([2]; T-cell) of the same compound?
Its IC50 is 24 nM.
